The text below walks through data of US6624288B1 (priority 1997, dated 2003).

The structures appear in SMILES notation.

The test system of the experiment is Isolated medial neurons from Aplysia oculifera pleuropedal ganglia. It counts as cell-based.

As to `NC1=N[C@H](O)[C@H]2[C@H]3O[C@]4(O)O[C@@H]([C@@H](O)[C@@]2(N1)[C@@H]4O)[C@]3(O)CO` [tetrodotoxin], the “effect on TxI-induced spike prolongation” value is recorded as “reduced the TxI-induced spike prolongation”.
